pIC50, pKi: −log10 of the molar value. Counter-ions that a name gives are not always drawn.
Assays:
Assay type in all cases: biochemical
[1] = tested on: sensitive w/t form of EPSPS; assay: EPSPS assays of plant extracts in the presence of glyphosate, sensitive w/t enzyme; details: 0.1 mM N-(phosphonomethyl)glycine; 0.1 mM 14C-PEP; 0.75 mM shikimate-3-Pi
Procedure: (§1) Assays are carried out generally according to the radiochemical method of Padgette et al 1987 (Archives of Biochemistry and Biophysics, 258(2) 564–573) with K+ions as the major species of cationic counterion. Assays in a total volume of 50 μl, in 50 mM Hepes(KOH) pH 7.0 at 25° C., contain purified enzyme or plant extract (see below) diluted appropriately in Hepes pH 7.0 containing 10% glycerol, and 5 mM DTT, ^14C PEP either as variable-substrate (for kinetic determinations) or fixed at 100 or 250 μM and shikimate 3 Phosphate (K+ salt) at 0.75 or 2 mM as indicated. Optionally, for assays of crude plant extracts, assays also contain 5 mM KF and/or 0.1 mM ammonium molybdate. Assays are started with the addition of ^14C phosphoenolpyruvate (cyclohexylammonium+salt) and stopped after 2–10 minutes (2 minutes is preferable) with the addition of 50 μl of a solution of 1 part 1M acetic acid and 9 parts ethanol. […] Apparent Km and Vmax values are determined by least squares fit to a hyperbola with simple weighting using the Grafit 3.09b from Erithacus Software Ltd. Km values are generally ascertained using 8–9 concentrations of variable substrate ranging from Km/2–10 Km and triplicate points. […]

resistant forms of EPSPS = assay: EPSPS assays of plant extracts in the presence of glyphosate, resistant enzyme; details: 0.1 mM N-(phosphonomethyl)glycine; 0.1 mM 14C-PEP; 0.75 mM shikimate-3-Pi; estimated
Procedure: as §1

[2] = target: T1, mutant Brassica napus EPSPS (Brassica napus, UniProt P17688, P178S/T174I); assay: Radiochemical EPSPS assay of purified mutant Brassica napus EPSPS
T1 construct: The mature mutant Brassica napus EPSPS protein is purified; initiating Met (N); made in house; host or cells: E. coli BL21 (DE3) RP, vector pET24a
Procedure: as §1, with “^14C PEP either as variable-substrate (for kinetic determinations) or fixed at 100 or 250 μM and shikimate 3 Phosphate” left out
The mature mutant Brassica napus EPSPS protein is purified at ˜4 C as follows. […] EPSPS-containing fractions detected on the basis of EPSPS enzyme activity are combined and loaded onto an xk16 column containing 20 ml of HP Q-Sepharose equilibrated with S200 buffer. […]

T1 sequence (P17688 73-516 T174I/P178S): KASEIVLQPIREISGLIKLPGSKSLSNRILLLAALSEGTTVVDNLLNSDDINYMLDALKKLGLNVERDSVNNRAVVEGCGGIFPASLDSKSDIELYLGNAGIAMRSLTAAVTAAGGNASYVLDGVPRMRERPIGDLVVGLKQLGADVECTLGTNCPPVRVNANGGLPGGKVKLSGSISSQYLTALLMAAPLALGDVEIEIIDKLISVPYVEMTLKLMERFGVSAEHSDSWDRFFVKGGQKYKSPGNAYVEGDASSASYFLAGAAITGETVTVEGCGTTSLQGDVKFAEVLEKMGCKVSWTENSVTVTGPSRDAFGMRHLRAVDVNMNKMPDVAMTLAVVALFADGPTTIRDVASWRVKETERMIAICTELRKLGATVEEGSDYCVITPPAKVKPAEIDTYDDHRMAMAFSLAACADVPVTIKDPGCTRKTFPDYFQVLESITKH

SMILES | inhibition of sensitive w/t EPSPS [1] [%] | inhibition of resistant forms of EPSPS (resistant forms of EPSPS) [%] | pIC50 ([2]; at 40 μM PEP, 2 mM shikimate-3-Pi, purified enzyme, read-out: IC50 value for the potassium salt of glyphosate) | pKi ([2]; purified mutant EPSPS, read-out: estimated Ki value for potassium glyphosate)
O=C(O)CNCP(=O)(O)O [N-(phosphonomethyl)glycine] | > 98 | < 8.5 | – | –
O=C(O)CNCP(=O)(O)O [potassium salt of glyphosate] | – | – | ~3.22 | ~3.35

Source: patent US7169970B2, “Herbicide resistant plants” (priority 2000, dated 2007)
